Measurements published in patent US12174198B2, “Methods of characterizing condensate-associated characteristics of compounds and uses thereof” (Dewpoint Therapeutics, Inc., priority 2019, dated 2024).
Counter-ions that a name gives are not always drawn.

Legend:
Assay type in all cases: physicochemical
PGL-3 condensates = target: T1, PGL-3 condensates (Caenorhabditis elegans, UniProt G5EBV6); test: Fluorescence imaging of dye partitioning in PGL-3 condensates (I-in, I-out); settings: for Ratio of intensity inside:outside PGL-3 Condensates Day 1 / Ratio of intensity inside:outside PGL-3 Condensates Day 2 / Ratio of intensity inside:outside PGL-3 Condensates Average: I-in:I-out; for Ratio of intensity inside:outside PGL-3 Condensates Day 1 / Ratio of intensity inside:outside PGL-3 Condensates Day 2 / Ratio of intensity inside:outside PGL-3 Condensates Average / Intensity Inside with Dye Average / Intensity Inside with Dye 1 / Intensity Inside with Dye 2 / Intensity Inside with Dye 3 / Intensity Outside with Dye Average / Intensity Outside with Dye 1 / Intensity Outside with Dye 2 / Intensity Outside with Dye 3: 10 μM dye; for Ratio of intensity inside:outside PGL-3 Condensates Average: average of two days; for Intensity Inside with Dye Average / Intensity Inside with Dye 1 / Intensity Inside with Dye 2 / Intensity Inside with Dye 3 / Intensity Inside Dye-No Dye: inside PGL-3 condensate; for Intensity Inside with Dye Average / Intensity Inside with Dye 1 / Intensity Inside with Dye 2 / Intensity Inside with Dye 3 / Intensity Outside with Dye Average / Intensity Outside with Dye 1 / Intensity Outside with Dye 2 / Intensity Outside with Dye 3: 5 μM protein; for Intensity Inside with Dye Average / Intensity Outside with Dye Average: average of three images; for Intensity Inside with Dye Average / Intensity Inside with Dye 1 / Intensity Inside with Dye 2 / Intensity Inside with Dye 3 / Intensity Inside Dye-No Dye / Intensity Outside with Dye Average / Intensity Outside with Dye 1 / Intensity Outside with Dye 2 / Intensity Outside with Dye 3 / Intensity Outside (Dye-No Dye): one day of experiments; for Intensity Inside with Dye 1 / Intensity Outside with Dye 1: image 1; for Intensity Inside with Dye 2 / Intensity Outside with Dye 2: image 2; for Intensity Inside with Dye 3 / Intensity Outside with Dye 3: image 3; for Intensity Inside Dye-No Dye / Intensity Outside (Dye-No Dye): background corrected; for Intensity Outside with Dye Average / Intensity Outside with Dye 1 / Intensity Outside with Dye 2 / Intensity Outside with Dye 3 / Intensity Outside (Dye-No Dye): outside PGL-3 condensate
T1 sequence (G5EBV6 1-693): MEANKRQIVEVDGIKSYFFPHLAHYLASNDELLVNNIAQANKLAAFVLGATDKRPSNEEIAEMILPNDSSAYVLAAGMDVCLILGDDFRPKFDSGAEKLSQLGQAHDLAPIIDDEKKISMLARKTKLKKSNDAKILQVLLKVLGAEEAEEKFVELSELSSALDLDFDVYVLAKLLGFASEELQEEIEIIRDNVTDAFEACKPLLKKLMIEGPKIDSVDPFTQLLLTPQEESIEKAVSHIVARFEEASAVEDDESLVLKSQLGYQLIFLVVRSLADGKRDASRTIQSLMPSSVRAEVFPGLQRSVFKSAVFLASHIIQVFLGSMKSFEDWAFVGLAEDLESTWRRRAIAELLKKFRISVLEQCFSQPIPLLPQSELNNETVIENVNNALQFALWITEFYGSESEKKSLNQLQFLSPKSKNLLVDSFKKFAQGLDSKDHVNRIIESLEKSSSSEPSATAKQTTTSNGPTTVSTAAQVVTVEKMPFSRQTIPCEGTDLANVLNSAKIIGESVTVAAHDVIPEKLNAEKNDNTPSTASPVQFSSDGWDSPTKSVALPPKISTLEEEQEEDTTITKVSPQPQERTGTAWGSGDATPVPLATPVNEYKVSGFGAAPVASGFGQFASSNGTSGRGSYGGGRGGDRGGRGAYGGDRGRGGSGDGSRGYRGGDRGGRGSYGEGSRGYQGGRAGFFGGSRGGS
How it was run: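 Partitioning read by spinning-disk confocal imaging (60× oil, dye-specific exposure 1-1000 ms) of condensates formed from 5 μM protein (FUS-SNAP or untagged PGL-3) plus 10 μM dye, 75 mM KCl, 1% DMSO, pH 7.25. Background-subtracted intensities inside and beside one condensate per image, three images averaged.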

[1] = system: FUS-SNAP condensates versus PGL-3 condensates; test: Condensate preference: ratio of FUS-SNAP I-in:I-out to PGL-3 I-in:I-out; settings: average FUS-SNAP I-in:I-out divided by average PGL-3 I-in:I-out
How it was run: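 For each condensate type, mean intensity inside the target condensates is divided by the intensity outside (I-in:I-out). The ratios from two experiment days are averaged. Preference is expressed as the FUS-SNAP ratio relative to the PGL-3 ratio.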

FUS-SNAP condensates = target: T2, FUS-SNAP condensates (Homo sapiens, UniProt P35637); test: Fluorescence-based assay of compound partitioning compared with the MS assay (Example 4); settings: condensate volume fraction of 1/1000 used
T2 sequence (P35637 1-526): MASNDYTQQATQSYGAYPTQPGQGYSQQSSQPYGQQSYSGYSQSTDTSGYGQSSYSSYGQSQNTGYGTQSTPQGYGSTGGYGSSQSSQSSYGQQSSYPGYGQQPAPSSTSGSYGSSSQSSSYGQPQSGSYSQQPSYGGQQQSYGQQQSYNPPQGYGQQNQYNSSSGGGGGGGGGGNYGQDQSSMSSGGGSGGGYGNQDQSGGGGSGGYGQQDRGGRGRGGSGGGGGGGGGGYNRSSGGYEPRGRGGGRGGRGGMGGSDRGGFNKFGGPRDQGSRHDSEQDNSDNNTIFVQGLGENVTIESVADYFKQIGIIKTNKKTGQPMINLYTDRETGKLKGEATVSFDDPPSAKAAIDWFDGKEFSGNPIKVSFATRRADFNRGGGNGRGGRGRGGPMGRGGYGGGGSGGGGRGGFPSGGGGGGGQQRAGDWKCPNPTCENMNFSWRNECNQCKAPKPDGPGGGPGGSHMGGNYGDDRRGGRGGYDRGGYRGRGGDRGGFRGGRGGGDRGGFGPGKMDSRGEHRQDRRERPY
Method: The partition characteristics of the test compounds were also determined using the fluorescence-based assay method disclosed in Example 2.
Rhodamine 101 (Rho 101), Rhodamine 800 ([…]), Rhodamine B (Rho B), Rhodamine 123 (Rho 123), and fluorescein were assessed using both the fluorescence-based assay and the mass spectrometry-based assay, as discussed above. […] Using the measurements, a ratio of compound concentration associated with the condensate compared to compound concentration not associated with the condensate was calculated for each compound. A condensate volume fraction of 1/1000 in relation to the outside phase was used.

| Compound | Ratio of intensity inside:outside PGL-3 Condensates Day 1 (PGL-3 condensates) | Ratio of intensity inside:outside PGL-3 Condensates Day 2 (PGL-3 condensates) | Ratio of intensity inside:outside PGL-3 Condensates Average (PGL-3 condensates) | Intensity Inside with Dye Average (PGL-3 condensates) | Intensity Inside with Dye 1 (PGL-3 condensates) | Intensity Inside with Dye 2 (PGL-3 condensates) | Intensity Inside with Dye 3 (PGL-3 condensates) | Intensity Inside Dye-No Dye (PGL-3 condensates) | Intensity Outside with Dye Average (PGL-3 condensates) | Intensity Outside with Dye 1 (PGL-3 condensates) | Intensity Outside with Dye 2 (PGL-3 condensates) | Intensity Outside with Dye 3 (PGL-3 condensates) | Intensity Outside (Dye-No Dye) (PGL-3 condensates) | Ratio of FUS-SNAP:PGL-3 [1] | Ratio of compound concentration in versus compound concentration out, Fluorescence-based assay (FUS-SNAP condensates) |
| --- | --- | --- | --- | --- | --- | --- | --- | --- | --- | --- | --- | --- | --- | --- | --- |
| O=C1OC2(c3ccc(O)cc3Oc3cc(O)ccc32)c2ccccc21 [Dye 6, Fluorescein] | 1.0 | 1.0 | 1.0 | 4402.0 | 4585.4 | 4501.5 | 4119.2 | 4255.5 | 4166.2 | 4395.6 | 4190.8 | 3912.1 | 4060.8 | 1.5 | 1 |
| COC(=O)c1ccccc1-c1c2ccc(=N)cc-2oc2cc(N)ccc12.Cl [Dye 14, Rhodamine 123] | 1.1 | 1.1 | 1.1 | 2877.7 | 2874.7 | 2858.2 | 2900.3 | 2731.2 | 2596.6 | 2628.3 | 2616.4 | 2545.0 | 2491.2 | 1.2 | 1 |
| CCN(CC)c1ccc2c(-c3ccccc3C(=O)O)c3ccc(=[N+](CC)CC)cc-3oc2c1 [Dye 16, Rhodamine B] | 1.4 | 1.3 | 1.4 | 5776.5 | 5570.5 | 6179.8 | 5579.3 | 5675.0 | 4088.7 | 3907.8 | 4226.6 | 4131.5 | 3987.2 | 3.0 | 666 |

Further lines, results first:

| Ratio of intensity inside:outside PGL-3 Condensates Day 1 (PGL-3 condensates) | Ratio of intensity inside:outside PGL-3 Condensates Day 2 (PGL-3 condensates) | Ratio of intensity inside:outside PGL-3 Condensates Average (PGL-3 condensates) | Intensity Inside with Dye Average (PGL-3 condensates) | Intensity Inside with Dye 1 (PGL-3 condensates) | Intensity Inside with Dye 2 (PGL-3 condensates) | Intensity Inside with Dye 3 (PGL-3 condensates) | Intensity Inside Dye-No Dye (PGL-3 condensates) | Intensity Outside with Dye Average (PGL-3 condensates) | Intensity Outside with Dye 1 (PGL-3 condensates) | Intensity Outside with Dye 2 (PGL-3 condensates) | Intensity Outside with Dye 3 (PGL-3 condensates) | Intensity Outside (Dye-No Dye) (PGL-3 condensates) | Ratio of FUS-SNAP:PGL-3 [1] | Ratio of compound concentration in versus compound concentration out, Fluorescence-based assay (FUS-SNAP condensates) | Compound |
| --- | --- | --- | --- | --- | --- | --- | --- | --- | --- | --- | --- | --- | --- | --- | --- |
| 1.8 | 1.9 | 1.9 | 13067.5 | 12579.6 | 14061.0 | 12561.8 | 12966.0 | 7117.9 | 7184.0 | 7157.1 | 7012.6 | 7016.4 | 3.2 | 1,500 | O=C([O-])c1ccccc1C1=c2cc3c4c(c2Oc2c1cc1c5c2CCCN5CCC1)CCC[N+]=4CCC3 [Dye 17, Rhodamine 101 inner salt] |
| 3.4 | 2.4 | 2.9 | 730.8 | 714.9 | 700.1 | 777.4 | 604.6 | 309.4 | 301.3 | 294.6 | 332.2 | 178.7 | 3.2 | 1,000 | N#CC1=c2cc3c4c(c2Oc2c1cc1c5c2CCCN5CCC1)CCC[N+]=4CCC3 [Dye 18, Rhodamine 800] |
